Results reported in patent publication US12291519B2, “2-hydroxycycloalkane-1-carbamoyl” (Idorsia Pharmaceuticals Ltd, priority 2019, dated 2025).

Experiments:
human Gal-3 (hGal-3) = human Gal-3 (hGal-3) (Homo sapiens (Human), UniProt P17931); experiment: Competitive binding assay: biotinylated hGal-3 binding to microplate-adsorbed asialofetuin (ASF); conditions: Activity on hGal-3; binding of biotinylated hGal-3 to ASF-coated plates; mean values
Procedure: (§1) Evaluation of Compound Inhibitory Activity (IC50)
The inhibitory activity of compounds is determined in competitive binding assays. […] Alternatively, and preferably, a human Gal-1 version in which all six cysteines are substituted by serines may be used.
Briefly, compounds are serially diluted in DMSO (working dilutions).
(§2) Plates are incubated for 3 hours at 4° C. then washed with cold assay buffer (3×50 uL), incubated for 1 hour with 25 μL/well of a streptavidin-peroxidases solution (diluted in assay buffer to 80 ng/mL) at 4° C., followed by further washing steps with assay buffer (3×50 uL). Finally, 25 μL/well of ABTS substrate is added.
(§3) The calculated IC50 values may fluctuate depending on the daily assay performance. Fluctuations of this kind are known to those skilled in the art. IC50 values from several measurements are given as mean values.

human Gal-1 (hGal-1) = experiment: Competitive binding assay: biotinylated hGal-1 binding to microplate-adsorbed asialofetuin (ASF); conditions: Activity on hGal-1; binding of biotinylated hGal-1 to ASF-coated plates; mean values
Procedure: as §1
The inhibitory activity of compounds is determined in competitive binding assays. This spectrophotometric assay measures the binding of biotinylated human Gal-3 (hGal-3) or human Gal-1 (hGAl-1), respectively, to a microplate-adsorbed glycoprotein, asialofetuin (ASF) (Proc Natl Acad Sci USA. 2013 Mar. 26; 110(13):5052-7.). Alternatively, and preferably, a human Gal-1 version in which all six cysteines are substituted by serines may be used.
Briefly, compounds are serially diluted in DMSO (working dilutions). ASF-coated 384 well pates are supplemented with 22.8 μL/well of biotinylated hGal-3 or hGal-1 in assay buffer (i.e. 300-1000 ng/mL biotinylated hGal-3 or hGal-1) to which 1.2 μL of compound working dilutions are added and mixed.
as §2, with “added. OD (410 nm) is recorded after 30 to 45 min and IC50 values are calculated.” for “added.”
as §3

Sequence of human Gal-1 (hGal-1) (P09382 2-135 limits assumed): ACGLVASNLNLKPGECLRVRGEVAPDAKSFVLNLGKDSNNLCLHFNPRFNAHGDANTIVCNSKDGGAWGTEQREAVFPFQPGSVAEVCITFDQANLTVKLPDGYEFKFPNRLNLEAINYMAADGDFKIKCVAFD
Sequence of human Gal-3 (hGal-3) (P17931 whole entry): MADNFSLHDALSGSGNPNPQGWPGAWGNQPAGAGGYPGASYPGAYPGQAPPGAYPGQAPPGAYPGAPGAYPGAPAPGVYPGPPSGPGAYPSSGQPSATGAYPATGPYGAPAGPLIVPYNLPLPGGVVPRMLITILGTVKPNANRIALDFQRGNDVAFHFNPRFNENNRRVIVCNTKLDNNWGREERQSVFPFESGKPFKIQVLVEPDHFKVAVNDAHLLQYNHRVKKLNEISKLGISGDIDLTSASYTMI

| Compound | IC50 (human Gal-3 (hGal-3)) [nM] | IC50 (human Gal-1 (hGal-1)) [nM] |
| --- | --- | --- |
| CO[C@@H]1[C@@H](n2cc(-c3cc(F)c(F)c(F)c3)nn2)[C@@H](O)[C@@H](CO)O[C@H]1C(=O)N(Cc1sccc1Cl)[C@H]1CCCC[C@@H]1O [Example 35, (2R,3R,4S,5R,6R)-N-((3-chlorothiophen-2-yl)methyl)-5-hydroxy-N-((1S,2S)-2-hydroxycyclohexyl)-6-(hydroxymethyl)-3-methoxy-4-(4-(3,4,5-trifluorophenyl)-1H-1,2,3-triazol-1-yl)tetrahydro-2H-pyran-2-carboxamide] | 210 | 1630 |
| CO[C@@H]1[C@@H](n2cc(-c3cc(F)c(F)c(F)c3)nn2)[C@@H](O)[C@@H](CO)O[C@H]1C(=O)N(c1cccc(C#N)c1)[C@H]1CCCC[C@@H]1O [Example 115, (2R,3R,4S,5R,6R)-N-(3-cyanophenyl)-5-hydroxy-N-((1S,2S)-2-hydroxycyclohexyl)-6-(hydroxymethyl)-3-methoxy-4-(4-(3,4,5-trifluorophenyl)-1H-1,2,3-triazol-1-yl)tetrahydro-2H-pyran-2-carboxamide] | 25 | 1000 |
| CO[C@@H]1[C@@H](n2cc(-c3cc(F)cc(F)c3)nn2)[C@@H](O)[C@@H](CO)O[C@H]1C(=O)N(c1cccc(Cl)c1)[C@H]1CCCC[C@@H]1O [Example 85, (2R,3R,4S,5R,6R)-N-(3-chlorophenyl)-4-(4-(3,5-difluorophenyl)-1H-1,2,3-triazol-1-yl)-5-hydroxy-N-((1S,2S)-2-hydroxycyclohexyl)-6-(hydroxymethyl)-3-methoxytetrahydro-2H-pyran-2-carboxamide] | 35 | 1690 |
| COc1cccc(N(C(=O)[C@@H]2O[C@H](CO)[C@H](O)[C@H](n3cc(-c4cccc(F)c4)nn3)[C@H]2OC)[C@H]2CCCC[C@@H]2O)c1 [Example 73, (2R,3R,4S,5R,6R)-4-(4-(3-fluorophenyl)-1H-1,2,3-triazol-1-yl)-5-hydroxy-N-((1S,2S)-2-hydroxycyclohexyl)-6-(hydroxymethyl)-3-methoxy-N-(3-methoxyphenyl)tetrahydro-2H-pyran-2-carboxamide] | 69 | 1540 |
| COc1ccccc1CN(C(=O)[C@@H]1O[C@H](CO)[C@H](O)[C@H](n2cc(-c3cc(F)c(F)c(F)c3)nn2)[C@H]1OC)[C@H]1CCCC[C@@H]1O [Example 39, (2R,3R,4S,5R,6R)-5-hydroxy-N-((1S,2S)-2-hydroxycyclohexyl)-6-(hydroxymethyl)-3-methoxy-N-(2-methoxybenzyl)-4-(4-(3,4,5-trifluorophenyl)-1H-1,2,3-triazol-1-yl)tetrahydro-2H-pyran-2-carboxamide] | 224 | 2960 |
| CO[C@@H]1[C@@H](n2cc(-c3cccc(F)c3)nn2)[C@@H](O)[C@@H](CO)O[C@H]1C(=O)N(c1cc(Cl)cc(C#N)c1)[C@H]1CCCC[C@@H]1O [Example 74] | 44 | 161 |
| CO[C@@H]1[C@@H](n2cc(-c3cc(F)c(F)c(F)c3)nn2)[C@@H](O)[C@@H](CO)O[C@H]1C(=O)N(c1cccc(C(F)(F)F)c1)[C@H]1CCCC[C@@H]1O [Example 116, (2R,3R,4S,5R,6R)-5-hydroxy-N-((1S,2S)-2-hydroxycyclohexyl)-6-(hydroxymethyl)-3-methoxy-N-(3-(trifluoromethyl)phenyl)-4-(4-(3,4,5-trifluorophenyl)-1H-1,2,3-triazol-1-yl)tetrahydro-2H-pyran-2-carboxamide] | 26 | 1950 |

More lines, now with the values ahead:

| IC50 (human Gal-3 (hGal-3)) [nM] | IC50 (human Gal-1 (hGal-1)) [nM] | Compound |
| --- | --- | --- |
| 85 | 707 | CO[C@@H]1[C@@H](n2cc(-c3cc(F)cc(Br)c3)nn2)[C@@H](O)[C@@H](CO)O[C@H]1C(=O)N(c1cccc(Cl)c1)[C@H]1CCCC[C@@H]1O [Example 149, (2R,3R,4S,5R,6R)-4-(4-(3-bromo-5-fluorophenyl)-1H-1,2,3-triazol-1-yl)-N-(3-chlorophenyl)-5-hydroxy-N-((1S,2S)-2-hydroxycyclohexyl)-6-(hydroxymethyl)-3-methoxytetrahydro-2H-pyran-2-carboxamide] |
| 37 | 1130 | CO[C@@H]1[C@@H](n2cc(-c3cc(F)c(Br)c(F)c3)nn2)[C@@H](O)[C@@H](CO)O[C@H]1C(=O)N(c1cc(Cl)cc(Cl)c1)[C@H]1CCCC[C@@H]1O [Example 151, (2R,3R,4S,5R,6R)-4-(4-(4-bromo-3,5-difluorophenyl)-1H-1,2,3-triazol-1-yl)-N-(3,5-dichlorophenyl)-5-hydroxy-N-((1S,2S)-2-hydroxycyclohexyl)-6-(hydroxymethyl)-3-methoxytetrahydro-2H-pyran-2-carboxamide] |
| 21 | 1140 | CO[C@@H]1[C@@H](n2cc(-c3ccc(F)c4ccccc34)nn2)[C@@H](O)[C@@H](CO)O[C@H]1C(=O)N(c1cc(Cl)cc(Cl)c1)[C@H]1CCCC[C@@H]1O [Example 192, (2R,3R,4S,5R,6R)-N-(3,5-dichlorophenyl)-4-(4-(4-fluoronaphthalen-1-yl)-1H-1,2,3-triazol-1-yl)-5-hydroxy-N-((1S,2S)-2-hydroxycyclohexyl)-6-(hydroxymethyl)-3-methoxytetrahydro-2H-pyran-2-carboxamide] |
| 34 | 792 | CO[C@@H]1[C@@H](n2cc(-c3ccc(Br)c(F)c3)nn2)[C@@H](O)[C@@H](CO)O[C@H]1C(=O)N(c1cc(Cl)cc(C#N)c1)[C@H]1CCCC[C@@H]1O [Example 165, (2R,3R,4S,5R,6R)-4-(4-(4-bromo-3-fluorophenyl)-1H-1,2,3-triazol-1-yl)-N-(3-chloro-5-cyanophenyl)-5-hydroxy-N-((1S,2S)-2-hydroxycyclohexyl)-6-(hydroxymethyl)-3-methoxytetrahydro-2H-pyran-2-carboxamide] |
| 40 | 750 | COc1cc(F)c(F)cc1-c1cn([C@H]2[C@@H](O)[C@@H](CO)O[C@@H](C(=O)N(c3cc(Cl)cc(C#N)c3)[C@H]3CCCC[C@@H]3O)[C@@H]2OC)nn1 [Example 174, (2R,3R,4S,5R,6R)-N-(3-chloro-5-cyanophenyl)-4-(4-(4,5-difluoro-2-methoxyphenyl)-1H-1,2,3-triazol-1-yl)-5-hydroxy-N-((1S,2S)-2-hydroxycyclohexyl)-6-(hydroxymethyl)-3-methoxytetrahydro-2H-pyran-2-carboxamide] |
| 43 | 4750 | CO[C@@H]1[C@@H](n2cc(-c3cc(F)c(F)c(F)c3)nn2)[C@@H](O)[C@@H](CO)O[C@H]1C(=O)N(c1cccc(C)c1)[C@H]1CCCC[C@@H]1O [Example 122, (2R,3R,4S,5R,6R)-5-hydroxy-N-((1S,2S)-2-hydroxycyclohexyl)-6-(hydroxymethyl)-3-methoxy-N-(m-tolyl)-4-(4-(3,4,5-trifluorophenyl)-1H-1,2,3-triazol-1-yl)tetrahydro-2H-pyran-2-carboxamide] |
| 13 | 140 | CO[C@@H]1[C@@H](n2cc(-c3cc(F)c(F)c(Cl)c3)nn2)[C@@H](O)[C@@H](CO)O[C@H]1C(=O)N(c1cc(Cl)cc(C#N)c1)[C@H]1CCCC[C@@H]1O [Example 132, (2R,3R,4S,5R,6R)-4-(4-(3-chloro-4,5-difluorophenyl)-1H-1,2,3-triazol-1-yl)-N-(3-chloro-5-cyanophenyl)-5-hydroxy-N-((1S,2S)-2-hydroxycyclohexyl)-6-(hydroxymethyl)-3-methoxytetrahydro-2H-pyran-2-carboxamide] |
